Data taken from patent US9346761B2, “Arginine methyltransferase inhibitors and uses thereof” (Epizyme, Inc., priority 2013, dated 2016).

biological target: T1, Full-length human PRMT3 (Homo sapiens, UniProt O60678); test: PRMT3 biochemical assay (3H-SAM Flashplate, peptide substrate)
T1 construct: GST-tagged PRMT3; made in house; host or cells: E. coli BL21(DE3) Gold (pGEX-KG)
Source text: General Materials. S-adenosylmethionine (SAM), S-adenosylhomocysteine (SAH), bicine, Tween20, dimethylsulfoxide (DMSO), bovine skin gelatin (BSG),), isopropyl-β-D-thiogalactopyranoside (IPTG), and Tris(2-carboxyethyl)phosphine hydrochloride solution (TCEP) were purchased from Sigma-Aldrich at the highest level of purity possible. ^3H-SAM was purchase from American Radiolabeled Chemicals with a specific activity of 80 Ci/mmol. 384-well streptavidin Flashplates were purchased from PerkinElmer.
Substrates. Peptide containing the classic RMT substrate motif was synthesized with an N-terminal linker-affinity tag motif and a C-terminal amide cap by 21st Century Biochemicals. The peptide was purified by high-performance liquid chromatography (HPLC) to greater than 95% purity and confirmed by liquid chromatography mass spectrometry (LC-MS). The sequence was Biot-Ahx-[…]-amide (SEQ ID NO.:11).
Molecular Biology: : Full-length human PRMT3 (NM_005788.3) isoform 1 transcript clone was amplified from an HEK 293 cDNA library and subcloned into pGEX-KG (GE Life Sciences). The resulting construct encodes an N-terminal GST tag and a thrombin cleavage sequence ([…] […] […] […]) (SEQ ID NO.:12) fused directly to Cys 2 of PRMT3.
Protein Expression. E. coli (BL21(DE3) Gold, Stratagene) made competent by the CaCl2 method were transformed with the PRMT3 construct and ampicillin selection. Protein over-expression was accomplished by growing the PRMT3 expressing E. coli clone and inducing expression with 0.3 mM IPTG at 16° C. The culture was grown for 12 hours, harvested by centrifugation, and stored at −80° C. for purification.
Protein Purification. […] GST-tagged PRMT3 eluted with 25-400 mM phosphate in buffer C. Protein was concentrated and buffer was exchanged to 20 mM Tris, 150 mM NaCl, 5% glycerol, 5 mM β-mercaptoethanol, pH7.8 by ultrafiltration. The purity of recovered protein was 70%.
General Procedure for PRMT3 Enzyme Assays on Peptide Substrates. The assays were all performed in a buffer consisting of 20 mM Bicine (pH=7.6), 1 mM TCEP, 0.005% BSG, and 0.002% Tween 20, prepared on the day of use. Compounds in 100% DMSO (1 ul) were spotted into a polypropylene 384-well V-bottom plates (Greiner) using a Platemate Plus outfitted with a 384-channel head (Thermo Scientific). DMSO (1 ul) was added to Columns 11, 12, 23, 24, rows A-H for the maximum signal control and 1 ul of SAH, a known product and inhibitor of PRMT3, was added to columns 11, 12, 23, 24, rows I-P for the minimum signal control. A cocktail (40 ul) containing the PRMT3 enzyme was added by Multidrop Combi (Thermo-Fisher). The compounds were allowed to incubate with PRMT3 for 30 min at room temperature, then a cocktail (10 ul) containing SAM and peptide was added to initiate the reaction (final volume=51 ul). The final concentrations of the components were as follows: PRMT3 was 0.5 nM, ^3H-SAM was 100 nM, non-radiolabeled SAM was 1.8 uM, peptide was 330 nM, SAH in the minimum signal control wells was 1 mM, and the DMSO concentration was 2%. The assays were stopped by the addition of potassium chloride (10 ul) to a final concentration of 100 mM. 50 ul of the reaction in the 384-well polypropylene plate was then transferred to a 384-well Flashplate and the biotinylated peptides were allowed to bind to the streptavidin surface for at least 1 hour before being washed once with 0.1% Tween20 in a Biotek ELx405 plate washer. The plates were then read in a PerkinElmer TopCount plate reader to measure the quantity of ^3H-labeled peptide bound to the Flashplate surface, measured as disintegrations per minute (dpm) or alternatively, referred to as counts per minute (cpm).
Where dpm=disintegrations per minute, cmpd=signal in assay well, and min and max are the respective minimum and maximum signal controls.
Where top and bottom are the normally allowed to float, but may be fixed at 100 or 0 respectively in a 3-parameter fit. […]

T1 sequence (O60678 with tags, fused parts or gaps): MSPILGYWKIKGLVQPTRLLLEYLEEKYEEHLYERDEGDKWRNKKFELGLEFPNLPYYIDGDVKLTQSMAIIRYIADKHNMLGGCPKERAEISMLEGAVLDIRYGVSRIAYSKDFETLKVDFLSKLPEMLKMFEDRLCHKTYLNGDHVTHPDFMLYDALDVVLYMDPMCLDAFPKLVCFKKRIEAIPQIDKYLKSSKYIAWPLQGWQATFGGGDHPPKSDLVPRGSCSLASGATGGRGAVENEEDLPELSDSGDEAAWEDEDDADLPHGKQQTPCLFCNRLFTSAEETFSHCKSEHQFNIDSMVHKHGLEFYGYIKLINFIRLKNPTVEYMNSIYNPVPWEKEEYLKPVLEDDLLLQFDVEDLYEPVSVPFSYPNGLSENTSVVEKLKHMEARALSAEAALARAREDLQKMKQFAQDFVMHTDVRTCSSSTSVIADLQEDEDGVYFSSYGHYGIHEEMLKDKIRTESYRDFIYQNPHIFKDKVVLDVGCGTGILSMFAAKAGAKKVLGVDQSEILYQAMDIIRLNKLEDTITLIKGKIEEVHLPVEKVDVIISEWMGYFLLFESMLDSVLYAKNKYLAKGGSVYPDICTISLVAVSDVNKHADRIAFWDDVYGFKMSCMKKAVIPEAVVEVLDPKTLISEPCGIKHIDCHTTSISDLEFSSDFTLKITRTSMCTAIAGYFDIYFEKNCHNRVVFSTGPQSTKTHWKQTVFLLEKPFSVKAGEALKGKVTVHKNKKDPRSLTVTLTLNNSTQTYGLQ

How did the IC50 turn out when `COCCn1cc(CN(C)CCN)c(-c2ccc(F)cc2)n1` [Compound 5] was run?
The IC50 was > 10 µM.

How did the IC50 turn out when `COCCn1ncc(CN(C)CCN)c1-c1ccc(F)cc1` [Compound 6] was run?
The IC50 was > 10 µM.

`CCn1ncc(CN(C)CCNC)c1-c1ccc(F)cc1` [Compound 7] was tested. Which IC50 did it give?
The IC50 was > 10 µM.

`CCn1cc(CN(C)CCNC)c(-c2ccc(F)cc2)n1` [Compound 8] was tested. Which IC50 did it give?
Its IC50 is > 10 µM.

For `CN(CCN)Cc1c[nH]nc1-c1ccc(Cl)cc1` [Compound 95], which IC50 is on record?
Its IC50 is 1.01 to 3 µM.

Which IC50 does the source give for `CN(CCN)Cc1c[nH]nc1-c1ccc(OCC(F)(F)F)cc1` [Compound 96] here?
The IC50 was 3.01 to 10 µM.

For `CC(C)Oc1ccc(-c2n[nH]cc2CN(C)CCN)cc1F` [Compound 97], which IC50 is on record?
The IC50 was 3.01 to 10 µM.

How did the IC50 turn out when `CN(CCN)Cc1c[nH]nc1-c1ccc(C2CCOCC2)cc1` [Compound 98] was run?
The IC50 was 0.101 to 1 µM.

Which IC50 does the source give for `CN(CCN)Cc1c[nH]nc1-c1ccc(F)cc1F` [Compound 99] here?
Its IC50 is > 10 µM.

How did the IC50 turn out when `CN(CCN)Cc1n[nH]cc1-c1ccc(C#N)cc1` [Compound 100] was run?
The IC50 was 3.01 to 10 µM.

`CC(C)c1ccc(-c2c[nH]nc2CN(C)CCN)cc1` [Compound 101] was tested. Which IC50 did it give?
Its IC50 is > 10 µM.

How did the IC50 turn out when `CN(CCN)Cc1n[nH]cc1-c1ccc(Cl)cc1` [Compound 102] was run?
Its IC50 is 3.01 to 10 µM.

`CN(CCN)Cc1n[nH]cc1-c1ccc(C(F)(F)F)cc1` [Compound 103] was tested. Which IC50 did it give?
Its IC50 is > 10 µM.

For `CN(CCN)Cc1n[nH]cc1-c1ccc(C2CC2)cc1` [Compound 104], which IC50 is on record?
Its IC50 is > 10 µM.

For `CN(CCN)Cc1n[nH]cc1-c1ccc(OC(F)(F)F)cc1` [Compound 105], which IC50 is on record?
Its IC50 is 3.01 to 10 µM.

For `CN(CCN)Cc1c[nH]nc1-c1cc(F)ccc1Cl` [Compound 106], which IC50 is on record?
The IC50 was > 10 µM.

For `COc1ccc(-c2n[nH]cc2CN(C)CCN)c(F)c1` [Compound 107], which IC50 is on record?
The IC50 was 3.01 to 10 µM.

How did the IC50 turn out when `Cc1ccc(-c2n[nH]cc2CN(C)CCN)c(F)c1` [Compound 108] was run?
Its IC50 is 3.01 to 10 µM.

With `COc1ccccc1-c1n[nH]cc1CN(C)CCN` [Compound 109] as the compound, how does the IC50 read?
The IC50 was > 10 µM.

For `Cc1cc(C#N)ccc1-c1n[nH]cc1CN(C)CCN` [Compound 110], which IC50 is on record?
The IC50 was 3.01 to 10 µM.

How did the IC50 turn out when `CN(CCN)Cc1c[nH]nc1-c1cc(F)cc(F)c1` [Compound 111] was run?
The IC50 was 3.01 to 10 µM.

For `CC(=O)c1cccc(-c2n[nH]cc2CN(C)CCN)c1` [Compound 112], which IC50 is on record?
Its IC50 is 3.01 to 10 µM.

How did the IC50 turn out when `CN(CCN)Cc1cnn(CC(O)CO)c1-c1ccc(F)cc1` (stereo not drawn) [Compound 113] was run?
The IC50 was > 10 µM.

`CN(CCN)Cc1c[nH]nc1-c1ccc(OC2CC2)cc1` [Compound 114] was tested. Which IC50 did it give?
The IC50 was 3.01 to 10 µM.

How did the IC50 turn out when `CC(O)c1ccc(-c2n[nH]cc2CN(C)CCN)cc1` (stereo not drawn) [Compound 115] was run?
Its IC50 is 3.01 to 10 µM.

Which IC50 does the source give for `CN(CCN)Cc1c[nH]nc1-c1ccc(C2CC2)cc1` [Compound 116] here?
Its IC50 is 1.01 to 3 µM.

How did the IC50 turn out when `CN(CCN)Cc1c[nH]nc1-c1ccc(C(F)(F)F)c(Cl)c1` [Compound 117] was run?
Its IC50 is 1.01 to 3 µM.

With `CN(CCN)Cc1c[nH]nc1-c1ccc(Cl)c(F)c1` [Compound 118] as the compound, how does the IC50 read?
The IC50 was 1.01 to 3 µM.

With `CN(CCN)Cc1n[nH]cc1-c1ccc(OC2CC2)cc1` [Compound 119] as the compound, how does the IC50 read?
Its IC50 is 3.01 to 10 µM.

For `CN(CCN)Cc1c[nH]nc1-c1cc(F)cc(Cl)c1` [Compound 121], which IC50 is on record?
Its IC50 is 1.01 to 3 µM.

With `CN(CCN)Cc1c[nH]nc1-c1cccc(Cl)c1` [Compound 122] as the compound, how does the IC50 read?
The IC50 was 3.01 to 10 µM.

For `CN(CCN)Cc1c[nH]nc1-c1cccc(Cl)c1F` [Compound 123], which IC50 is on record?
The IC50 was 3.01 to 10 µM.

For `CN(CCN)Cc1c[nH]nc1-c1ccc(F)c(Cl)c1` [Compound 124], which IC50 is on record?
The IC50 was 1.01 to 3 µM.

How did the IC50 turn out when `COc1ccc(-c2n[nH]cc2CN(C)CCN)cc1Cl` [Compound 125] was run?
The IC50 was 3.01 to 10 µM.

How did the IC50 turn out when `Cc1ccc(-c2n[nH]cc2CN(C)CCN)cc1Cl` [Compound 126] was run?
The IC50 was 1.01 to 3 µM.

For `COc1cc(Cl)cc(-c2n[nH]cc2CN(C)CCN)c1` [Compound 127], which IC50 is on record?
Its IC50 is 3.01 to 10 µM.

With `CN(CCN)Cc1cn(CC2CCOCC2)nc1-c1ccc(F)cc1` [Compound 128] as the compound, how does the IC50 read?
Its IC50 is > 10 µM.

Which IC50 does the source give for `Cc1c(F)cccc1-c1n[nH]cc1CN(C)CCN` [Compound 129] here?
The IC50 was 3.01 to 10 µM.

For `COc1cccc(-c2n[nH]cc2CN(C)CCN)c1` [Compound 130], which IC50 is on record?
The IC50 was 3.01 to 10 µM.

For `Cc1cccc(-c2n[nH]cc2CN(C)CCN)c1` [Compound 131], which IC50 is on record?
Its IC50 is 3.01 to 10 µM.

For `CN(CCN)Cc1c[nH]nc1-c1ccc(Cl)cc1F` [Compound 132], which IC50 is on record?
The IC50 was 3.01 to 10 µM.

With `Cc1cc(Cl)ccc1-c1n[nH]cc1CN(C)CCN` [Compound 133] as the compound, how does the IC50 read?
Its IC50 is 3.01 to 10 µM.
